Reference: patent publication US12454536B2, “Deuterated 7-(3-(4-(2-([18F]fluoro)ethoxy)phenyl)propyl)-2-(furan-2-yl)-7H- pyrazolo [4,3-e][1,2,4]triazolo[1,5-C]pyrimidine-5-amine derivatives” (HELMHOLTZ-ZENTRUM DRESDEN-ROSSENDORF E.V., priority 2019, dated 2025)

What was measured:
[1] = molecular target: hA1 (Homo sapiens, UniProt P30542); test: biochemical
[2] = molecular target: hA2A (Homo sapiens, UniProt P29274); test: Affinity for human adenosine A2A receptor (Ki); assay type: binding
[3] = In-vivo metabolite study in female CD-1 mice (radio-HPLC); conditions: for intact radiotracer in the brain / intact radiotracer in the plasma: radio-HPLC
Description: In the in-vivo metabolite study in female CD-1 mice after 15 min p.i. in the brain 93% (radio-HPLC, n=3, extraction yield 98%) and in the plasma 79% (radio-HPLC, n=3, extraction yield 83%) of intact radiotracers have been detected.

[4] = molecular target: adenosine A2A receptors (Mus musculus, UniProt Q60613); test: Radiotracer affinity (Kd, Bmax); assay type: binding; conditions: n=5
[5] = PET study in healthy CD-1 mice; assay type: in vivo; conditions: striatum, 15 min p.i., n=3
[6] = test system: striatum (brain slices); test: In-vitro autoradiography in mouse brain slices; assay type: binding; conditions: brain slices of mice
[7] = Stability of radiotracer in solutions and porcine plasma; assay type: in vitro ADME; conditions: 37° C., one hour
Description: [^18F]FLUDA has shown to be stable in a sodium chloride, PBS, n-octanol solution and in porcine plasma at 37° C. for one hour (PBS=phosphate buffered salt solution). Using the conventional “Shake-flask” method a log D74=2.01±0.07 (n=3) has been established.

[8] = further tests, taking into account the above data, n=3
[9] = female CD-1 mice, 15 min p.i., n=3
[10] = repeated study (Example 6A / Comparison example 1A)

Sequence of hA1 (P30542 whole entry): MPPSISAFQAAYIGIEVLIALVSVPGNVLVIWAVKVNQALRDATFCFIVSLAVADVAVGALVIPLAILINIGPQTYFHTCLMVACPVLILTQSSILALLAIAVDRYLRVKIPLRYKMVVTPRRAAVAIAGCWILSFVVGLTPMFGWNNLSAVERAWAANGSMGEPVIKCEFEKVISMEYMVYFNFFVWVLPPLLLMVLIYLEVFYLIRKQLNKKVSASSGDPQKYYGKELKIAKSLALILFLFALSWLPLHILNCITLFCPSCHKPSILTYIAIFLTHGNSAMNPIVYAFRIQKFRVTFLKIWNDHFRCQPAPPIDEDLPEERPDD
Sequence of hA2A (P29274 whole entry): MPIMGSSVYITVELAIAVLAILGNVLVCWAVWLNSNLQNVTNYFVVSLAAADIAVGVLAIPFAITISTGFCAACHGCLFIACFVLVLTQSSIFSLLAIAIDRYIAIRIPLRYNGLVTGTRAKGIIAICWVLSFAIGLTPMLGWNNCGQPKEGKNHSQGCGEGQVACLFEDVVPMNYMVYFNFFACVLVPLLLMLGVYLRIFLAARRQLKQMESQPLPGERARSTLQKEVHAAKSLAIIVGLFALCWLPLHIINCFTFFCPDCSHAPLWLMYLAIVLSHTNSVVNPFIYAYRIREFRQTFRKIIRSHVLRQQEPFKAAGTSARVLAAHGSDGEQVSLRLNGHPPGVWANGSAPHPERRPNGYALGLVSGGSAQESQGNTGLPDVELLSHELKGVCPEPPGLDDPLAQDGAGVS
Sequence of adenosine A2A receptors (Q60613 whole entry): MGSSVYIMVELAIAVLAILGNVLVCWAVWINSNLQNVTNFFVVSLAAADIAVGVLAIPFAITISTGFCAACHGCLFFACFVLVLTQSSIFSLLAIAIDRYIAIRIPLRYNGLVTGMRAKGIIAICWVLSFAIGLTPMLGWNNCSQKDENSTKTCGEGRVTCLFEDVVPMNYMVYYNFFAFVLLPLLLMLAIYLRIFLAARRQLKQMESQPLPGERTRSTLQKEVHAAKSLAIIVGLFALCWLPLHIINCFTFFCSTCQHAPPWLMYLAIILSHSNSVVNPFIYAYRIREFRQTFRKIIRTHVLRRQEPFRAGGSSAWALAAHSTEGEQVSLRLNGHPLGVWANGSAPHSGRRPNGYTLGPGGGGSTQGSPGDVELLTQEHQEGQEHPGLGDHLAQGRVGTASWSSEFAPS

| Compound | Ki ([1]; first determination) [nM] | Ki [1, 8] [nM] | Ki ([2]; first determination) [nM] | Ki [2, 8] [nM] | intact radiotracer in the brain [3, 9] [%] | intact radiotracer in the plasma [3, 9] [%] | metabolic stability compared to 18F-labeled compound D ([3]; mouse, in vivo) | intact radiotracer in the brain [3, 10] [%] | intact radiotracer in the plasma [3, 10] [%] | Bmax [4] [fmol/mg] | cerebral uptake SUV [5] | change of the radiotracer by A2A-selective ligands [6] | enrichment of the radiotracer in the target region (striatum) [6] | stability in PBS [7] | stability in n-octanol solution [7] | stability in porcine plasma [7] | stability in sodium chloride solution [7] | Ki ([1]; n=4) [nM] |
| --- | --- | --- | --- | --- | --- | --- | --- | --- | --- | --- | --- | --- | --- | --- | --- | --- | --- | --- |
| [2H]C([2H])(F)C([2H])([2H])Oc1ccc(CCCn2ncc3c2nc(N)n2nc(-c4ccco4)nc32)cc1 (single isomer, unassigned) [FLUDA, 7-(3-(4-(2-(fluoro)ethoxy-1,1,2,2-d4)phenyl)propyl)-2-(furan-2-yl)-7H-pyrazolo[4,3-e][1,2,4]triazolo[1,5-c]pyrimidine-5-amine] | 767 | > 1000 | 0.609 | 0.74 ± 0.26 |  |  |  |  |  |  |  |  |  |  |  |  |  |  |
| [2H]C([2H])([18F])C([2H])([2H])Oc1ccc(CCCn2ncc3c2nc(N)n2nc(-c4ccco4)nc32)cc1 [[^18F]FLUDA, 7-(3-(4-(2-([^18F]fluoro)ethoxy-1,1,2,2-d4)phenyl)propyl)-2-(furan-2-yl)-7H-pyrazolo[4,3-e][1,2,4]triazolo[1,5-c]pyrimidine-5-amine] |  |  |  |  | 93 | 79 | significantly higher | 100 | 82 | 556 ± 143 | 0.8 | change of the radiotracer by means of A2A-selective ligands | selective enrichment | stable | stable | stable | stable |  |
| Nc1nc2c(cnn2CCCc2ccc(OCC[18F])cc2)c2nc(-c3ccco3)nn12 (single isomer, unassigned) [[^18F]D, 7-(3-(4-(2-([^18F]fluoro)ethoxy)phenyl)propyl)-2-(furan-2-yl)-7H-pyrazolo[4,3-e][1,2,4]triazolo[1,5-c]pyrimidine-5-amine, reference compound] |  |  |  |  | 68 | 70 |  | 71 | 41 |  |  |  |  |  |  |  |  | 203 |
